The test system of data set [1] is PANC1 pancreatic cancer cells. Put plainly: Cell viability assay (WST-1) in PANC1 pancreatic cancer cells. It is filed as cell-based, human. The following applies: for pIC50: WST-1 dye 6 days after treatment, calculated using CompuSyn. As for the experimental part: (§1) Cell culture. The human pancreatic cancer cell lines ASPC-1, HS766T, and Panc-1, were obtained from the American Type Culture Collection (ATCC) and maintained in various types of media. Specifically, HS766T and PANC1 cells were cultured in DMEM containing media, and APSC-1 cells were maintained in RPMI medium (Thermo Fischer). Media was supplemented with 10% fetal bovine serum (Thermo Fischer).
(§2) Cell viability assay. Cells were plated 1000 cells per well in 96 well plates. Twenty four hours later cell media was changed to media supplemented with DFBS, with 50, 25, 12.5, 6.25, 3.125 or 1.5625 nM of Control miRNA (Thermo Fischer), miR-194, 5-FU-miR-194, Gem-mIR-194 or 5-FU-Gem-miR-194. 24 hours later media was changed again to fresh media supplemented with DFBS. 6 days after treatment cell number was assessed using WST-1 dye (Roche). Cells were incubated with 10 μl of WST-1 dye per 100 μl of media for 1 hour and absorbance was read at 450 and 630 nm. The optical density (O.D.) was calculated by subtracting the absorbance at 630 nm from that at 450 nm. IC^50 values were calculated using CompuSyn software (ComboSyn, Inc).

For the next data set, the system named is SET8. Put plainly: Western immunoblot analysis of miR-194 target SET8 expression. It is filed as cell-based, human. The following applies: 50 nM. As for the experimental part:
as §1
(§3) Western immunoblot analysis. Twenty-four hours prior to transfection 1×10^5 cells were plated in 6 well plates. Cells were either transfected using Oligofectamine (Thermo Fischer) or no transfection vehicle, with 50 nM control miRNA (Thermo Fischer), miR-194 or one of the three miR-194 mimics. Three days following transfection protein was collected in RIPA buffer with protease inhibitor (Sigma). Equal amounts of protein (15 μg), were separated on 10% sodium dodecyl sulfate-polyacrylamide gels as described in Laemmli U K. Nature. 1970; 227(5259) pp. 680-685, the entire contents of which is incorporated herein by reference. Proteins were probed with anti-SET8 or BMI-1 (1:500) (Cell Signaling Technologies) and anti-GAPDH (1:100000) antibodies. Horseradish peroxidase conjugated antibodies against mouse or rabbit (1:5000, Santa Cruz Biotech Inc.) were used as the secondary antibodies. Protein bands were visualized with autoradiography film using SuperSignal West Pico Chemiluminescent Substrate (Thermo Fischer).
A general note: A western blot detects proteins with antibodies after separation by electrophoresis.

The test system of data set [2] is HS766T pancreatic cancer cells. Put plainly: Cell viability assay (WST-1) in HS766T pancreatic cancer cells. As to conditions: for pIC50: WST-1 dye 6 days after treatment, calculated using CompuSyn. It is filed as cell-based, human. As to the method: as §1, §2
The test system of a further data set is BMI1. Put plainly: Western immunoblot analysis of miR-194 target BMI1 expression. It is filed as cell-based, human. The following applies: 50 nM. As to the method: as §1, §3
Data set [3] relates to ASPC1 pancreatic cancer cells. Put plainly: Cell viability assay (WST-1) in ASPC1 pancreatic cancer cells. The following applies: for pIC50: WST-1 dye 6 days after treatment, calculated using CompuSyn. It is filed as cell-based, human. As for the experimental part: as §1, §2
A short description of data set [4]: Toxicity in mice treated in the pancreatic cancer metastasis model. It is filed as in vivo. The following applies: mouse; 80 μg intravenous injection every other day for two weeks. As for the experimental part: (§4) Mouse subcutaneous tumor implantation model. For in vivo miRNA delivery experiments, pancreatic cancer cells were created that expressed the lenti-luc reporter gene by infecting parental pancreatic cancer cells with a recombinant lentivirus. Luciferase-expressing HS766T cells (2.0×10^6 cells per mouse) were suspended in 0.1 mL of PBS solution and was injected through tail vein of each mouse. Four days after injection of pancreatic cancer cells, mice were treated via tail vein injection with 80 μg of negative control or modified miR(s) packaged with in vivo-jet PEI (Polyplus Transfection). Mice were treated every other day for 2 weeks (8 times). Following treatment, mice were screened using IVIS Spectrum In vivo Imaging System (IVIS) (PerkinElmer).

Data set [5] has as its system Luciferase-expressing HS766T cells. Put plainly: Pancreatic cancer metastasis mouse model (tail vein injection, IVIS imaging). It counts as in vivo. As to conditions: 80 μg intravenous injection every other day for two weeks, started four days after establishing metastasis, versus negative control microRNA. As to the method:
as §4

Setting [6] is: in the presence of a transfection agent (Oligofectamine), three days following transfection, FIG. 2A.
The mark [7] stands for this setting: no transfection vehicle, three days, FIG. 2B.
The mark [8] stands for this setting: in the presence of a transfection agent (Oligofectamine), three days following transfection, FIG. 2C.
Setting [9] is: no transfection vehicle, three days, FIG. 2D.

This is an account of results in patent US20220145304A1, “MODIFIED MICRORNAS AND THEIR USE IN THE TREATMENT OF CANCER” (The Research Foundation for The State University of New York, priority 2019, published 2022).

pIC50: −log10 of the molar value. Several values for one entry are separate records, joined by “and”; a condition that tells them apart may be missing. Identical values can stand only once. Entries after “also recorded” stand apart in the source; their conditions may differ.

For orientation: pIC50 means the IC50 on a negative log10 scale, so that one unit is a factor of ten. For “5-FU-miR-194 (NGNAACAGCAACNCCANGNGGA; 5-FU replacing U; fluorouracil modified miR-194 with a fluorouracil molecule at positions 1, 3, 13, 17 and 19; (1)..(1) N is Fluorouracil molecule; (3)..(3) N is Fluorouracil molecule; (13)..(13) N is Fluorouracil molecule; (17)..(17) N is Fluorouracil molecule; (19)..(19) N is Fluorouracil molecule)”, the pIC50 was 7.80 and 7.78 in data set [1]; 7.58 in data set [2]; 8.22 in data set [3]. Also, the “SET8 protein expression (Western blot)” value in the data set with SET8 (setting [6]) was “more potent than unmodified (control) miR-194”; in the data set on SET8 (setting [7]), “retain the ability to inhibit SET8”. In addition, the “BMI1 protein expression (Western blot)” value is “more potent than unmodified (control) miR-194” in the data set on BMI1 (setting [8]) and “retain the ability to inhibit” with BMI1 (setting [9]).
Turning to “Gem-miR-194: modified miR-194, all 5 cytosine bases in the guide strand replaced by gemcitabine: UGUAANAGNAANUNNAUGUGGA [SEQ ID NO. 2], N is gemcitabine (cytosines replaced by gemcitabine, chemistry not fully specified)”, the “toxicity in treated mice” value in data set [4] was “did not exhibit any toxicity”. Besides, the “pancreatic cancer cell viability (in words)” value in data set [1] (1.5625-50 nM, FIG. 3B) is “reduce pancreatic cancer cell viability”; in data set [2] (1.5625-50 nM, FIG. 3C), “reduce pancreatic cancer cell viability”; in data set [3] (1.5625-50 nM, FIG. 3A), “reduce pancreatic cancer cell viability”. The pIC50 in data set [1] is 8.72; in data set [2] it was 8.45; in data set [3] it was 8.37. For the same substance, the “SET8 protein expression (Western blot)” value with SET8 (setting [6]) is “more potent than unmodified (control) miR-194; also recorded: inhibit SET8 and BMI1”; with SET8 (setting [7]), “retain the ability to inhibit SET8; also recorded: inhibit SET8 and BMI1”. The “metastatic pancreatic cancer growth” value in data set [5] (FIG. 4) is “able to inhibit metastatic pancreatic cancer growth compared to control”; in data set [5] (FIG. 4, listed as SEQ ID NO: 2), “inhibiting tumor growth in vivo”; in data set [5] (FIG. 4, listed as SEQ ID NOs: 2), “able to inhibit metastatic pancreatic cancer growth compared to control”. In addition, the “BMI1 protein expression (Western blot)” value with BMI1 (setting [8]) is “more potent than unmodified (control) miR-194; also recorded: inhibit SET8 and BMI1”; in the data set on BMI1 (setting [9]), “retain the ability to inhibit; also recorded: inhibit SET8 and BMI1”.
For “miR-194: unmodified (native) miR-194 sequence UGUAACAGCAACUCCAUGUGGA [SEQ ID NO. 1] (unmodified RNA; listed as Homo sapiens) [reference compound]”, in the data set with BMI1 (setting [9]), the “BMI1 protein expression (Western blot)” value is on record as “unable to inhibit target expression”.
